Measured values published in patent US10150767B2, “Therapeutic compounds and uses thereof” (priority 2014, dated 2018).

Target: TAF1-BD2 (Homo sapiens, UniProt P21675)
Experiment: TAF1-BD2 TR-FRET binding assay
Details: Assay: TAF-1; biotinylated probe compound 1000, TR-FRET
Experimental: Specifically, in a 384 well ProxiPlate TAF1-BD2 (6 nM final) was combined with biotin-ligand (50 nM final) in 50 mM HEPES (pH 7.5), 50 mM NaCl, 1 mM TCEP, 0.01% (w/v) BSA, and 0.008% (w/v) Brij-35 either in the presence of DMSO (final 0.2% DMSO) or compound dilution series in DMSO. After 10 minutes incubation at room temperature, a mixture Eu-W1024 Anti-6×His antibody (Perkin Elmer AD0110) and SureLight™ Allophycocyanin-Streptavidin (APC-SA, Perkin Elmer CR130-100) were added to a final concentrations of 0.2 nMolar antibody and 25 nMolar APC-SA, respectively. After twenty minutes of equilibration, the plates were read on an Envision instrument and IC50s calculated using a four parameter non-linear curve fit.

Structure (SMILES) | IC50 [nM]
Cn1cc(-c2ccc(C(=O)N3CCOCC3)cc2)c2cc[nH]c2c1=O [Example 30, 6-methyl-4-[4-(morpholine-4-carbonyl)phenyl]-1H-pyrrolo[2,3-c]pyridin-7-one] | 350
Cn1cc(-c2ccc(C(=O)NCc3ccccc3)cc2)c2cc[nH]c2c1=O [Example 37, N-benzyl-4-(6-methyl-7-oxo-1H-pyrrolo[2,3-c]pyridin-4-yl)benzamide] | 63
CN1CCC(c2cccc(-c3cn(C)c(=O)c4[nH]ccc34)c2)CC1 [Example 43, 6-methyl-4-[3-(1-methyl-4-piperidyl)phenyl]-1H-pyrrolo[2,3-c]pyridin-7-one] | 680
CN1CCC(Cc2cccc(-c3cn(C)c(=O)c4[nH]ccc34)c2)CC1 [Example 46, 6-methyl-4-[3-[(1-methyl-4-piperidyl)methyl]phenyl]-1H-pyrrolo[2,3-c]pyridin-7-one] | 440
